Laboratory results published in patent US11247987B2, “Inhibiting ubiquitin specific peptidase 30” (FORMA Therapeutics, Inc., priority 2017, dated 2022).

molecular target: T1, human recombinant USP30 (Homo sapiens, UniProt Q70CQ3); assay: Ubiquitin-Rhodamine 110 Assay for USP30 Activity (USP30 Inhibitor Biochemical Assay); details: 0.2 nM USP30, 25 nM Ub-Rh110, 30 min preincubation, 30 min at room temperature; read-out: USP30 potency range (USP30 biochemical IC50 assay, IC50 ranges)
T1 construct: purchased Boston Biochem E-582
T1 sequence (Q70CQ3 1-517): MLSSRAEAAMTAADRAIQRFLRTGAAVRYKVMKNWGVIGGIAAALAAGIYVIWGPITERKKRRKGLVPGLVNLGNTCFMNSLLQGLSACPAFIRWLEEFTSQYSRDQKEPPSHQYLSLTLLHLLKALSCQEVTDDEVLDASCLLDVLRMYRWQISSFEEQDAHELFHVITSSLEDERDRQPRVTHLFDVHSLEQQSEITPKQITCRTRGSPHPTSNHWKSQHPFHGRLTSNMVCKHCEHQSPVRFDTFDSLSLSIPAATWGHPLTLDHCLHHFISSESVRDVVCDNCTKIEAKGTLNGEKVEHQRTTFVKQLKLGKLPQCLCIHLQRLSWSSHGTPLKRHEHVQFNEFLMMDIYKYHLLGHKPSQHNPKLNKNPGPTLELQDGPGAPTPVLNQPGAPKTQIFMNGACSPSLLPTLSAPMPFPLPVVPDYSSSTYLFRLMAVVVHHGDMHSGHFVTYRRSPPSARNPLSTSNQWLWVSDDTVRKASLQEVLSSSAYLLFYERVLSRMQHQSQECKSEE
Experimental: Example A: Biochemical Assay: Ubiquitin-Rhodamine 110 Assay for USP30 Activity (USP30 Inhibitor Biochemical Assay)
The assay was performed in a final volume of 9 μL in assay buffer containing 20 mM Tris-HCl (pH 8.0, (1M Tris-HCl, pH 8.0 solution; Corning 46-031-CM)), 1 mM GSH (L-glutathione reduced, Sigma-Aldrich, G4251-100G), 0.03% BGG (0.22 μM filtered, Sigma, G7516-25G), and 0.01% Triton X-100 (Sigma, T9284-10L). Nanoliter quantities of 10-point, 3-fold serial dilution in DMSO were pre-dispensed into 1536 assay plates (Corning, #3724BC) for a final test concentration of 25 μM to 1.3 nM, top to lowest dose, respectively. Concentration and incubation times were optimized for the maximal signal-to-background while maintaining initial velocity conditions at a fixed substrate concentration. The final concentration of USP30 (human recombinant USP30, Boston Biochem, cat. # E-582) in the assay was 0.2 nM. […] 3 μL of 2×USP30 was added to assay plates (pre-stamped with compound), preincubated for 30 minutes and then treated with 3 μL of 2×Ub-Rh110. Plates were incubated for 30 minutes at room temperature before addition of 3 μL of stop solution (final concentration of 10 mM citric acid (Sigma, 251275-500G)). Fluorescence was read on the Envision (excitation at 485 nm and emission at 535 nm; Perkin Elmer) or on the PheraSTAR (excitation at 485 nm and emission at 535 nm; BMG Labtech).
For all assay formats data were reported as percent inhibition compared with control wells based on the following equation: % inh=1−((FLU−AveLow)/(AveHigh−AveLow)) where FLU=measured Fluorescence, AveLow=average Fluorescence of no enzyme control (n=16), and AveHigh=average Fluorescence of DMSO control (n=16). IC50 values were determined by curve fitting of the standard 4 parameter logistic fitting algorithm included in the Activity Base software package: IDBS XE Designer Model205. Data is fitted using the Levenburg Marquardt algorithm.

Structure (SMILES) | IC50 [nM]
N#CN[C@@H]1C[C@H]1C(=O)Nc1ncc(C2CCCCC2)s1 (relative stereo) [Compound 11-1, trans-2-(cyanoamino)-N-(5-cyclohexyl-1,3-thiazol-2-yl)cyclopropane-1-carboxamide] | 1000 to 10000
N#CN[C@H]1C[C@H]1C(=O)Nc1ncc(C2CCCCC2)s1 (relative stereo) [Compound 11-2, cis-2-(cyanoamino)-N-(5-cyclohexyl-1,3-thiazol-2-yl)cyclopropane-1-carboxamide] | 1000 to 10000
CC1(C)CCCC[C@H]1c1ncc(NC(=O)[C@H]2C[C@H](NC#N)C2)s1 (single isomer, unassigned) [Compound 1-13] | 100 to 1000
N#CN[C@H]1C[C@H](C(=O)Nc2ncc([C@@H]3CCCC[C@H]3C(F)(F)F)s2)C1 (single isomer, unassigned) [Compound 1-35] | 100 to 1000
N#CN[C@H]1C[C@H](N2C[C@@H](Nc3ncc(C4CCCCC4)s3)CC2=O)C1 (single isomer, unassigned) [Compound 6-1] | 100 to 1000
CC(C)(C)c1sc(N2CC[C@]3(C[C@H](NC#N)C3)C2=O)nc1Cl (single isomer, unassigned) [Compound 7-1, ([(2r,4s)-6-(5-tert-butyl-4-chloro-1,3-thiazol-2-yl)-5-oxo-6-azaspiro[3.4]octan-2-yl]amino)carbonitrile] | < 100
CC(C)(C)c1sc(NC(=O)[C@]2(Cl)C[C@@H](NC#N)C2)nc1Cl (single isomer, unassigned) [Compound 9-1, (1s,3s)-N-(5-tert-butyl-4-chloro-1,3-thiazol-2-yl)-1-chloro-3-(cyanoamino)cyclobutane-1-carboxamide] | < 100
CC(C)(C)c1sc(NC(=O)[C@]2(Cl)C[C@H](NC#N)C2)nc1Cl (single isomer, unassigned) [Compound 9-2, (1r,3r)-N-(5-tert-butyl-4-chloro-1,3-thiazol-2-yl)-1-chloro-3-(cyanoamino)cyclobutane-1-carboxamide] | 100 to 1000
N#CN[C@H]1C[C@H](C(=O)Nc2ncc(C3CCOCC3)s2)C1 [Compound 1-1, trans-3-(cyanoamino)-N-[5-(oxan-4-yl)-1,3-thiazol-2-yl]cyclobutane-1-carboxamide] | 1000 to 10000
Cn1nc(-c2ccccc2)cc1NC(=O)[C@H]1C[C@H](NC#N)C1 [Compound 1-2, (1r,3r)-3-(cyanoamino)-N-(1-methyl-3-phenyl-1H-pyrazol-5-yl)cyclobutane-1-carboxamide] | 100 to 1000
N#CN[C@H]1C[C@H](C(=O)Nc2cnc(C3CCCCC3)s2)C1 [Compound 1-3, (1r,3r)-3-(cyanoamino)-N-(2-cyclohexyl-1,3-thiazol-5-yl)cyclobutane-1-carboxamide] | < 100
CN(c1cnc(C2CCCCC2)s1)C(=O)[C@H]1C[C@H](NC#N)C1 [Compound 1-4, (1r,3r)-3-(cyanoamino)-N-(2-cyclohexyl-1,3-thiazol-5-yl)-N-methylcyclobutane-1-carboxamide] | 100 to 1000
CN(c1ncc(C(C)(C)C)s1)C(=O)[C@H]1C[C@H](NC#N)C1 [Compound 1-5, (1r,3r)-N-(5-tert-butyl-1,3-thiazol-2-yl)-3-(cyanoamino)-N-methylcyclo-butane-1-carboxamide] | 100 to 1000
Cn1nc(C2CCCCC2)cc1NC(=O)[C@H]1C[C@H](NC#N)C1 [Compound 1-6, (1r,3r)-3-(cyanoamino)-N-(3-cyclohexyl-1-methyl-1H-pyrazol-5-yl)cyclobutane-1-carboxamide] | 100 to 1000
Cc1nc(C2CCCCC2)sc1NC(=O)[C@H]1C[C@H](NC#N)C1 [Compound 1-7, (1r,3r)-3-(cyanoamino)-N-(2-cyclohexyl-4-methyl-1,3-thiazol-5-yl)cyclobutane-1-carboxamide] | 100 to 1000
CC(C)Oc1ccccc1-c1ncc(NC(=O)[C@H]2C[C@H](NC#N)C2)s1 [Compound 1-8, (1r,3r)-3-(cyanoamino)-N-{2-[2-(propan-2-yloxy)phenyl]-1,3-thiazol-5-yl}cyclobutane-1-carboxamide] | 100 to 1000
N#CN[C@H]1C[C@H](C(=O)Nc2cnc(C3CC(F)(F)C3)s2)C1 [Compound 1-9, (1r,3r)-3-(cyanoamino)-N-[2-(3,3-difluoro-cyclobutyl)-1,3-thiazol-5-yl]cyclobutane-1-carboxamide] | 100 to 1000
N#CN[C@H]1C[C@H](C(=O)Nc2nc(Cl)c(C3CCCCC3)s2)C1 [Compound 1-10, (1r,3r)-N-(4-chloro-5-cyclohexyl-1,3-thiazol-2-yl)-3-(cyanoamino)cyclo-butane-1-carboxamide] | < 100
C[C@]1(C(=O)Nc2cnc(C3CCCCC3)s2)C[C@H](NC#N)C1 [Compound 1-11, (1r,3s)-3-(cyanoamino)-N-(2-cyclohexyl-1,3-thiazol-5-yl)-1-methylcyclobutane-1-carboxamide] | < 100
CC1(C)CCCC[C@@H]1c1ncc(NC(=O)[C@H]2C[C@H](NC#N)C2)s1 [Compound 1-12, (1r,3r)-3-(cyanoamino)-N-{2-[(1S)-2,2-dimethylcyclohexyl]-1,3-thiazol-5-yl}cyclobutane-1-carboxamide] | < 100
N#CN[C@H]1C[C@H](C(=O)Nc2sc(C3CCCCC3)nc2Cl)C1 [Compound 1-14, (1r,3r)-N-(4-chloro-2-cyclohexyl-1,3-thiazol-5-yl)-3-(cyanoamino)cyclo-butane-1-carboxamide] | 100 to 1000
CC1(C)[C@H](NC#N)C[C@H]1C(=O)Nc1cnc(C2CCCCC2)s1 [Compound 1-15, (1R,3R)-3-(cyanoamino)-N-(2-cyclohexyl-1,3-thiazol-5-yl)-2,2-dimethylcyclobutane-1-carboxamide] | 100 to 1000
COCc1nc(NC(=O)[C@H]2C[C@H](NC#N)C2)sc1C1CCCCC1 [Compound 1-16, (1r,3r)-3-(cyanoamino)-N-[5-cyclohexyl-4-(methoxymethyl)-1,3-thiazol-2-yl]cyclobutane-1-carboxamide] | < 100
N#CN[C@H]1C[C@H](C(=O)Nc2sc(C3CCCCC3)nc2F)C1 [Compound 1-17, (1r,3r)-3-(cyanoamino)-N-(2-cyclohexyl-4-fluoro-1,3-thiazol-5-yl)cyclobutane-1-carboxamide] | 100 to 1000
N#CN[C@H]1C[C@@H](C(=O)Nc2nc(Cl)c(C3CCCCC3)s2)C1 [Compound 1-18, (1s,3s)-N-(4-chloro-5-cyclohexyl-1,3-thiazol-2-yl)-3-(cyanoamino)cyclo-butane-1-carboxamide] | 100 to 1000
CC(C)(C)c1sc(NC(=O)[C@H]2C[C@H](NC#N)C2)nc1Cl [Compound 1-19, (1r,3r)-N-(5-tert-butyl-4-chloro-1,3-thiazol-2-yl)-3-(cyanoamino)cyclo-butane-1-carboxamide] | < 100
N#CN[C@H]1C[C@H](C(=O)Nc2ccc(Cl)c(C(F)(F)F)c2)C1 [Compound 1-20, (1r,3r)-N-[4-chloro-3-(trifluoromethyl)phenyl]-3-(cyano-amino)cyclobutane-1-carboxamide] | 1000 to 10000
C[C@@H]1CCCC[C@@H]1c1cnc(NC(=O)[C@H]2C[C@H](NC#N)C2)s1 [Compound 1-21, (1r,3r)-3-(cyanoamino)-N-{5-[(1S,2R)-2-methylcyclohexyl]-1,3-thiazol-2-yl}cyclobutane-1-carboxamide] | 100 to 1000
C[C@H]1CCCC[C@H]1c1cnc(NC(=O)[C@H]2C[C@H](NC#N)C2)s1 [Compound 1-22, (1r,3r)-3-(cyanoamino)-N-{5-[(1R,2S)-2-methylcyclohexyl]-1,3-thiazol-2-yl}cyclobutane-1-carboxamide] | 100 to 1000
